Laboratory results published in ChEMBL document CHEMBL4190279 (Eur J Med Chem, 2017).

What was measured:
[1] = target: Amyloid-beta precursor protein (Homo sapiens) (UniProt P05067); assay: Inhibition of amyloid beta (1 to 42) (unknown origin) self aggregation at 50 uM relative to control
HBL-100 [2] = assay: cells; conditions: Homo sapiens, HBL-100, 48 h
Description: Antiproliferative activity against human HBL100 cells after 48 hrs by SRB assay

HeLa [3] = assay: cells; conditions: Homo sapiens, 48 h
Description: Antiproliferative activity against human HeLa cells after 48 hrs by SRB assay

SW1573 [4] = assay: cells; conditions: Homo sapiens, SW1573, 48 h
Description: Antiproliferative activity against human SW1573 cells after 48 hrs by SRB assay

T47D [5] = assay: cells; conditions: Homo sapiens, 48 h
Description: Antiproliferative activity against human T47D cells after 48 hrs by SRB assay

WiDr [6] = assay: cells; conditions: Homo sapiens, 48 h
Description: Antiproliferative activity against human WiDr cells after 48 hrs by SRB assay

in vitro = conditions: human, hTERT-BJ cells
Description: Antiproliferative activity against human hTERT-BJ cells after 48 hrs by SRB assay

Acetylcholinesterase [7] = target: T1, Acetylcholinesterase (Electrophorus electricus, UniProt O42275); assay: Non-competitive inhibition of electric eel AChE assessed as enzyme-inhibitor complex using p-nitrophenyl acetate as substrate by Lineweaver-Burk plot analysis
T1 sequence (O42275 whole entry): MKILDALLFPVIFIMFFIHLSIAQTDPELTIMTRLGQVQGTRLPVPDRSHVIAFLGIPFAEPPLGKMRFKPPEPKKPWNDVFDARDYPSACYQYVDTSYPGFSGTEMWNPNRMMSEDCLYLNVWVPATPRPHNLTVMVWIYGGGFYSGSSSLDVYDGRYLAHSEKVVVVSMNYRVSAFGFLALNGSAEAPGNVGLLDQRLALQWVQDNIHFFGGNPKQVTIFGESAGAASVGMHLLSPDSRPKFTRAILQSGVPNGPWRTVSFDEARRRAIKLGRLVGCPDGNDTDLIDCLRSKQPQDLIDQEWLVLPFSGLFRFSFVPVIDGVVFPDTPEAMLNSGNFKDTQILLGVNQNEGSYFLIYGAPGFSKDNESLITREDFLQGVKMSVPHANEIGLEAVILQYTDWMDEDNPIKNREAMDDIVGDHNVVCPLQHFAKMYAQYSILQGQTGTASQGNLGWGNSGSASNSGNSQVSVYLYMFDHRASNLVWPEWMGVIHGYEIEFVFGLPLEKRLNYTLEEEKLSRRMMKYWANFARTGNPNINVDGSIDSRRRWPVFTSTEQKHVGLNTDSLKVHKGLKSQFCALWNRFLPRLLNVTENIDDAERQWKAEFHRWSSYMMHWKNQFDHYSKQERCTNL

Acetylcholinesterase [8] = target: T1, Acetylcholinesterase; assay: Non-competitive inhibition of electric eel AChE assessed as enzyme-substrate-inhibitor complex using p-nitrophenyl acetate as substrate by Lineweaver-Burk plot analysis
Cholinesterase [9] = target: T2, Cholinesterase (Equus caballus, UniProt P81908); assay: Mixed-type inhibition of equine serum BuChE assessed as enzyme-inhibitor complex using p-nitrophenyl butyrate as substrate by Lineweaver-Burk plot analysis
T2 sequence (P81908 whole entry): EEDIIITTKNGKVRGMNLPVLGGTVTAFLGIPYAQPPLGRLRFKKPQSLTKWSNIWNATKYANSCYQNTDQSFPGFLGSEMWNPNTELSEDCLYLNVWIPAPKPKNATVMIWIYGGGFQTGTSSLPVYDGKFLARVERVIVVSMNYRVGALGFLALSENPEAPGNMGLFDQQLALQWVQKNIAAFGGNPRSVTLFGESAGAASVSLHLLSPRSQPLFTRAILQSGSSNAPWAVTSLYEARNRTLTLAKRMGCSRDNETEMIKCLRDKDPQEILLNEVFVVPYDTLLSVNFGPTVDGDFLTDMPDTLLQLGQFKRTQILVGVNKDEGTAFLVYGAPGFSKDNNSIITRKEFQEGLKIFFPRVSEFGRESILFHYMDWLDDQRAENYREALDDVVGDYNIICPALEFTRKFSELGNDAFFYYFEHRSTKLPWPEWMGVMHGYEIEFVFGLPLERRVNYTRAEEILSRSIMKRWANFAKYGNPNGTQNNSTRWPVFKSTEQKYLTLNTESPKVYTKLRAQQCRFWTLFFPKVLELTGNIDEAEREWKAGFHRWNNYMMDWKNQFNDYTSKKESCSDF

Cholinesterase [10] = target: T2, Cholinesterase; assay: Mixed-type inhibition of equine serum BuChE assessed as enzyme-substrate-inhibitor complex using p-nitrophenyl butyrate as substrate by Lineweaver-Burk plot analysis
[11] = Selectivity index, ratio of Ki for equine serum BuChE assessed as enzyme-substrate-inhibitor complex to Ki for electric eel AChE assessed as enzyme-substrate-inhibitor complex
[12] = GPx-like activity of the compound assessed as velocity for H2O2 reduction by measuring oxidation of PhSH to (PhS)2 at 50 uM measured for 180 secs by spectrophotometric analysis; assay type: functional
[13] = GPx-like activity of the compound assessed as H2O2 reduction by measuring oxidation of PhSH to (PhS)2 at 50 uM measured for 180 secs by spectrophotometric analysis relative to control; assay type: functional
HBL-100 [14] = assay: Potency index, ratio of 5-FU GI50 to compound GI50 for human HBL100 cells; assay type: functional
[15] = GPx-like activity of the compound assessed as half life for H2O2 reduction by measuring oxidation of PhSH to (PhS)2 at 50 uM measured for 180 secs by spectrophotometric analysis relative to control; assay type: functional
HeLa [16] = assay: Potency index, ratio of 5-FU GI50 to compound GI50 for human HeLa cells; assay type: functional
SW1573 [17] = assay: Potency index, ratio of 5-FU GI50 to compound GI50 for human SW1573 cells; assay type: functional
T47D [18] = assay: Potency index, ratio of 5-FU GI50 to compound GI50 for human T47D cells; assay type: functional
WiDr [19] = assay: Potency index, ratio of 5-FU GI50 to compound GI50 for human WiDr cells; assay type: functional
HBL-100 [20] = assay: Potency index, ratio of cisplatin GI50 to compound GI50 for human HBL100 cells; assay type: functional
HeLa [21] = assay: Potency index, ratio of cisplatin GI50 to compound GI50 for human HeLa cells; assay type: functional
SW1573 [22] = assay: Potency index, ratio of cisplatin GI50 to compound GI50 for human SW1573 cells; assay type: functional
T47D [23] = assay: Potency index, ratio of cisplatin GI50 to compound GI50 for human T47D cells; assay type: functional
WiDr [24] = assay: Potency index, ratio of cisplatin GI50 to compound GI50 for human WiDr cells; assay type: functional
A549 [25] = assay: Potency index, ratio of cisplatin GI50 to compound GI50 for human A549 cells; assay type: functional
A549 [26] = assay: cells; conditions: Homo sapiens, A549, 48 h
Description: Antiproliferative activity against human A549 cells after 48 hrs by SRB assay

Acetylcholinesterase [27] = target: T1, Acetylcholinesterase; assay: Competitive inhibition of electric eel AChE assessed as enzyme-inhibitor complex using p-nitrophenyl acetate as substrate by Lineweaver-Burk plot analysis
Cholinesterase [28] = target: T2, Cholinesterase; assay: Non-competitive inhibition of equine serum BuChE assessed as enzyme-inhibitor complex using p-nitrophenyl butyrate as substrate by Lineweaver-Burk plot analysis
Cholinesterase [29] = target: T2, Cholinesterase; assay: Non-competitive inhibition of equine serum BuChE assessed as enzyme-substrate-inhibitor complex using p-nitrophenyl butyrate as substrate by Lineweaver-Burk plot analysis
[30] = Selectivity index, ratio of GI50 for human hTERT-BJ cells to GI50 for human WiDr cells; assay type: toxicity; conditions: hTERT-BJ cells versus WiDr cells, read-out: RatioGI50
Acetylcholinesterase [31] = target: T1, Acetylcholinesterase; assay: Uncompetitive inhibition of electric eel AChE assessed as enzyme-substrate-inhibitor complex using p-nitrophenyl acetate as substrate by Lineweaver-Burk plot analysis

Chain of Amyloid-beta precursor protein (Homo sapiens) (P05067 whole entry): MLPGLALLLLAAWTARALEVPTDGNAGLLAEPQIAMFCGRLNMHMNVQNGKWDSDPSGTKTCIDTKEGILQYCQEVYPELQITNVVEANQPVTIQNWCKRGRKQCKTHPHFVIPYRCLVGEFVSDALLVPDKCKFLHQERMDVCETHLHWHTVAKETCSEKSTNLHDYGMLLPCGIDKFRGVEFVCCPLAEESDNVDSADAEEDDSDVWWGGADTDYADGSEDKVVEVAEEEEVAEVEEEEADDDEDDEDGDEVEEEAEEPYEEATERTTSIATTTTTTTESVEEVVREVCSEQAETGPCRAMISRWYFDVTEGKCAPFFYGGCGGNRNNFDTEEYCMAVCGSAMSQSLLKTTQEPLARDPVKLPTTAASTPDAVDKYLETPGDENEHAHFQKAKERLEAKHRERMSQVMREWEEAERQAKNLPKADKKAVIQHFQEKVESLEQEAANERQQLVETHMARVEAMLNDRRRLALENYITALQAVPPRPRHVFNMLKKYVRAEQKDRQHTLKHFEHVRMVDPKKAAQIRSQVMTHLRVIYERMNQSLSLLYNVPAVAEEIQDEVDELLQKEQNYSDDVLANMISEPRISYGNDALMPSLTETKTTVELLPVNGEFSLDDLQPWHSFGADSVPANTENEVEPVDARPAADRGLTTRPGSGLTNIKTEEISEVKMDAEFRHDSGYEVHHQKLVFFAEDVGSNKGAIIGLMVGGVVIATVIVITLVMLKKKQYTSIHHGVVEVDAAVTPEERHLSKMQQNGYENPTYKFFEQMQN

Compound	GI50 (HBL-100 [2])	GI50 (HeLa [3])	GI50 (SW1573 [4])	GI50 (T47D [5])	GI50 (WiDr [6])	GI50 at 48 h (in vitro)	Activity [12]	fold change (FC) [13]	T1/2 [15]	GI50 (A549 [26])	further results
c1ccc2c(NCCCCCCCNc3c4c(nc5ccccc35)CCCC4)c3c(nc2c1)CCCC3	–	–	–	–	–	–	–	–	–	–	inhibition [1]: 71.1%
O=c1[nH]cc(F)c(=O)[nH]1 [FLUOROURACIL]	5.5 µM	15000 nM	4300 nM	47000 nM	49000 nM	5500 nM	–	–	–	–	–
c1ccc2c(NCCCCCCSSCCCCCCNc3c4c(nc5ccccc35)CCCC4)c3c(nc2c1)CCCC3	0.99 µM	330 nM	240 nM	370 nM	200 nM	220 nM	32.8 µM/min	4.2	1.27 h	1100 nM	Ki (Acetylcholinesterase [7]): 14.8 nM; Ki (Acetylcholinesterase [8]): 14.8 nM; Ki (Cholinesterase [9]): 243 nM; Ki (Cholinesterase [10]): 70 nM; Ratio Ki [11]: 4.7; RatioGI50 (HBL-100 [14]): <=306; RatioGI50 (HeLa [16]): <=306; RatioGI50 (SW1573 [17]): <=306; RatioGI50 (T47D [18]): <=306; RatioGI50 (WiDr [19]): <=306; RatioGI50 (HBL-100 [20]): <=162; RatioGI50 (HeLa [21]): <=162; RatioGI50 (SW1573 [22]): <=162; RatioGI50 (T47D [23]): <=162; RatioGI50 (WiDr [24]): <=162; RatioGI50 (A549 [25]): <=162
Cc1ccc(NC(=[Se])NCCCCCCNc2c3c(nc4ccccc24)CCCC3)cc1	8.1 µM	4100 nM	3700 nM	3000 nM	2200 nM	–	29.6 µM/min	3.8	1.41 h	5500 nM	Ki (Acetylcholinesterase [27]): 7.6 nM; Ki (Cholinesterase [28]): 10.7 nM; Ki (Cholinesterase [29]): 10.7 nM
c1ccc([Se][Se]c2ccccc2)cc1	–	–	–	–	–	–	14.8 µM/min	1.9	2.81 h	–	–
O=c1c2ccccc2[se]n1-c1ccccc1	–	–	–	–	–	–	2 µM/min	0.3	20.8 h	–	–
c1ccc([Se]CCCCCCNc2c3c(nc4ccccc24)CCCC3)cc1	2 µM	1200 nM	1100 nM	660 nM	890 nM	2400 nM	19.6 µM/min	2.5	2.13 h	860 nM	selectivity ratio [30]: ≤ 4.7; Ki (Acetylcholinesterase [31]): 8 nM; Ki (Cholinesterase [28]): 57 nM; Ki (Cholinesterase [29]): 57 nM; Ratio Ki [11]: 7.1
